Source: US12649059B2, “Methods for reducing bleeding in hemophilia by vagus nerve stimulation to prime platelets” (The Feinstein Institutes for Medical Research, priority 2022, dated 2026)
Where two headings read alike, the source gives them in different places.

How the values were obtained:
a7nAChR [1] = biological target: a7nAChR (Mus musculus, UniProt P49582)
From the text: (§1) To confirm platelet a7nAChR modulates hemostasis, we first administered the pharmacological a7nAChR agonist nicotine to wild-type mice before tail injury. […] To restrict a7nAChR to platelets, we transferred platelets from wild-type or a7KO donor mice into a7nAChR-deficient animals before tail transection.
(§2) Mice are screened before study inclusion to ensure visual similarity and consistency between the anatomy of the tail tips and the site of transection. […] Following vagus nerve stimulation or sham surgery, tails are immersed in water at 37+1° C. for five minutes. Tails are then removed from the solution, amputated 2 mm from the tip with a razor blade, and immediately placed into a 50 mL beaker containing water at 37+1° C. Tails are allowed to bleed uncontrolled until bleeding stops for a minimum of ten seconds. This duration of bleeding is recorded as bleeding time. For analyses of bleeding in factor VIII deficient mice, tails are first immersed in 0.9% saline at 37±1° C. for five minutes. Tails are then removed and amputated 2 mm from the tip with a razor blade. Tails are then placed into a 50 mL conical tube containing 0.9% saline at 37±1° C. Tails are allowed to bleed freely for a total of ten minutes. Total blood loss is determined by densitometry by measuring absorbance at 550 nm. A standard curve is created from a known volume of blood.

a7nAChR [2] = tested on: a7nAChR
From the text: as §1, §2

a7nAChR (Mus musculus, UniProt P49582), sequence (P49582 23-502): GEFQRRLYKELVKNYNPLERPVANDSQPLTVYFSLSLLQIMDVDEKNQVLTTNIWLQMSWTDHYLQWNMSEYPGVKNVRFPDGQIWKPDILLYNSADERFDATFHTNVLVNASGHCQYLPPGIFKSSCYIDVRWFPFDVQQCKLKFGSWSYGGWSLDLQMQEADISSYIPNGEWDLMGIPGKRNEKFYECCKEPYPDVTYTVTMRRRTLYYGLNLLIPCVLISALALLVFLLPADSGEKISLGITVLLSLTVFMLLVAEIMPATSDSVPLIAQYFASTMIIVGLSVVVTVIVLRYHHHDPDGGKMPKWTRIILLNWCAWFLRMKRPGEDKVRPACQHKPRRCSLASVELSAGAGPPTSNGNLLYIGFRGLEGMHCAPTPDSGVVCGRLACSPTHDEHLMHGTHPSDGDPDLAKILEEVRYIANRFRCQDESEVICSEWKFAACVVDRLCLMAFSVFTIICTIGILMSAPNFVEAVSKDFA

SMILES: CN1CCCC1c1cccnc1 (stereo not shown) [nicotine]
- bleeding time as compared with vehicle treatment (a7nAChR [1]; a7nAChR-deficient mice reconstituted with wild-type platelets, FIG. 2H, p<0.05 vs. vehicle control): significantly reduces bleeding time
- bleeding time as compared with vehicle treatment (a7nAChR [1]; wild-type mice, nicotine before tail injury, FIG. 2G, p<0.01 vs. vehicle control): significantly decreases bleeding time
- bleeding time as compared with vehicle treatment (a7nAChR [2]; a7nAChR-deficient mice receiving platelets from a7KO donors, FIG. 2H): not
- bleeding time as compared with vehicle treatment (a7nAChR [2]; a7nAChR-deficient mice, nicotine before tail transection, FIG. 2G): fails to reduce bleeding time
